# Patent US20120245137A1 (Zalicus Pharmaceuticals Ltd., priority 2009, published 2012)
# pIC50: −log10 of the molar value.
# Tests used:
# Type in all cases: cell-based
# [1] = molecular target: N-type calcium channel subunits (α1B, α2δ, and β3a) (Homo sapiens, UniProt Q00975); assay: Block of Cav2.2 channel, whole cell voltage clamp, manual and PatchXpress; conditions: Table 5; table follows Assay Example 3 (whole cell voltage clamp / PatchXpress); assay not given
# Outline: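 Percent block taken as current amplitude ratio with versus without compound, applied in rising doses; IC50 fitted where one cell received multiple doses. Protocol: 50 ms pulses to +20 mV at 0.067 Hz from […] or −90 mV holding; P/n leak subtraction, no junction-potential correction; manual and PatchXpress recordings.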
# [2] = molecular target: human α1H T-type channels (Homo sapiens, UniProt O95180); assay: T-type calcium channel block, whole cell patch clamp, α1H; conditions: HEK cells stably expressing human α1H; mainly non-inactivated protocol; values above 10,000 nM represented as 10000
# Outline: (§1)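 Using standard patch-clamp, T-type currents were recorded from stably transfected human α1G or α1H HEK 293 cells. Separate non-inactivating and inactivation voltage protocols distinguished resting from voltage-dependent block by locally applied compound in 0.1-0.01% DMSO.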
# [3] = molecular target: human α1G T-type channels (Homo sapiens, UniProt O43497); assay: T-type calcium channel block, whole cell patch clamp, α1G; conditions: HEK cells stably expressing human α1G; mainly non-inactivated protocol; values above 10,000 nM represented as 10000
# Outline: as §1
# Chain of N-type calcium channel subunits (α1B, α2δ, and β3a) (Q00975 whole entry): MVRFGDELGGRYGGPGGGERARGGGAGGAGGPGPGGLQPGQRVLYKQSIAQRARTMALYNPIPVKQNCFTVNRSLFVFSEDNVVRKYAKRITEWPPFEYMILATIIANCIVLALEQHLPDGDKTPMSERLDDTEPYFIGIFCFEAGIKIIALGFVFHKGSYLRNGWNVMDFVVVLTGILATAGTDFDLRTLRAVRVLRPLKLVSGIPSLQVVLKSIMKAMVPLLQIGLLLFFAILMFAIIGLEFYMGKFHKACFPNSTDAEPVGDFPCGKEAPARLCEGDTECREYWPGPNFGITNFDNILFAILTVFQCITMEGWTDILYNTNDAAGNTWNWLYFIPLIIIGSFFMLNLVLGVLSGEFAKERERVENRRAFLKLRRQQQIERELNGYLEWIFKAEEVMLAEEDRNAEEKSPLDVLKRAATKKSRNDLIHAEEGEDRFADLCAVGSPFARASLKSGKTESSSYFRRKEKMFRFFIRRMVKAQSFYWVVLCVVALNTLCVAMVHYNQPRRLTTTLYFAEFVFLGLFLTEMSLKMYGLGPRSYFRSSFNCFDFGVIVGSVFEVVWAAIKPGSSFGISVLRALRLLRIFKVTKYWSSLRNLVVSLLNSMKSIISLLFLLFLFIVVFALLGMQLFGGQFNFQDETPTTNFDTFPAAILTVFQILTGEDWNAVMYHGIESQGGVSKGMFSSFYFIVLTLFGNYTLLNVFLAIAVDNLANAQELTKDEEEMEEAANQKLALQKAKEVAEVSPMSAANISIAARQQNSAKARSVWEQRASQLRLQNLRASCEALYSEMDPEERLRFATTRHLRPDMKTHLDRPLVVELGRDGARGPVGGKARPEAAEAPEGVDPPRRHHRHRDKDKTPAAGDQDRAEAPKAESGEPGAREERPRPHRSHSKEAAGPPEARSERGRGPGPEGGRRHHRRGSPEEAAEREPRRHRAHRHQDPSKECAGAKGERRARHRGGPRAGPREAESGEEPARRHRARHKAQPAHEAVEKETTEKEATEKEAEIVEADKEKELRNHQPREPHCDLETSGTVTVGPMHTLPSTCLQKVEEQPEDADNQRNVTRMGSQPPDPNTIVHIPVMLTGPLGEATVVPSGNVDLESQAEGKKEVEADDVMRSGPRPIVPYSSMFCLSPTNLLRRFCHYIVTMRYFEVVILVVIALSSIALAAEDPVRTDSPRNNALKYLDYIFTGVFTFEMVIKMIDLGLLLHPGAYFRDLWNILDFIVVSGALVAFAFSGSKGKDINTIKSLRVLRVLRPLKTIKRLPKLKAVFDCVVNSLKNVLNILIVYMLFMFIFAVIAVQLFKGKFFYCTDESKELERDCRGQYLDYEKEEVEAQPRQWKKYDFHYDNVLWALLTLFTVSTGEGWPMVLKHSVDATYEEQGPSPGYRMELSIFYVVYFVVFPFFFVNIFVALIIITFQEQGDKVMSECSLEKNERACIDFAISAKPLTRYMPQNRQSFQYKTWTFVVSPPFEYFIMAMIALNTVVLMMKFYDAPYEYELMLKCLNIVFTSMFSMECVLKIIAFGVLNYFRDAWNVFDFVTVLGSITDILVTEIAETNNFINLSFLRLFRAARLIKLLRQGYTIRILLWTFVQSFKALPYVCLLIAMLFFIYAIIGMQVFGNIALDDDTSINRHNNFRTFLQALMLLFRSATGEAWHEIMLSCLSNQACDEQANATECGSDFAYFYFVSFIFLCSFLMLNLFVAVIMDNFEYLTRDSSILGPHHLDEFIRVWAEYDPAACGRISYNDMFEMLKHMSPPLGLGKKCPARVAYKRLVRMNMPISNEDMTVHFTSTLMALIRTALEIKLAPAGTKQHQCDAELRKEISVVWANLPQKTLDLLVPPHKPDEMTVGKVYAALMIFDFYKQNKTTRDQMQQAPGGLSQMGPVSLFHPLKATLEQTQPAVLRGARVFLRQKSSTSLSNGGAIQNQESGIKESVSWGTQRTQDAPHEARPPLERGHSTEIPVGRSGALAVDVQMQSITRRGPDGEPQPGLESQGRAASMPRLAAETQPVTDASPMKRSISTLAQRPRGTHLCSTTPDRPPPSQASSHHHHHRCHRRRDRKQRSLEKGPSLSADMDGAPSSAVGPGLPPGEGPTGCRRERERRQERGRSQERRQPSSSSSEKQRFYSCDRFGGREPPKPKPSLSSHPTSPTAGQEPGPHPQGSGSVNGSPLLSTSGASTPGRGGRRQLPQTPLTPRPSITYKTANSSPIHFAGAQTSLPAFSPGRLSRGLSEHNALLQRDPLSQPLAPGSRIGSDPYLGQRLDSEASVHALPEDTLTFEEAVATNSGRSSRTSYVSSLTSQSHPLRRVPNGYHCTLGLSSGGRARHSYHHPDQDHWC
# Chain of N-type calcium channel subunits (α1B, α2δ, and β3a) (P54289 25-1103 partner): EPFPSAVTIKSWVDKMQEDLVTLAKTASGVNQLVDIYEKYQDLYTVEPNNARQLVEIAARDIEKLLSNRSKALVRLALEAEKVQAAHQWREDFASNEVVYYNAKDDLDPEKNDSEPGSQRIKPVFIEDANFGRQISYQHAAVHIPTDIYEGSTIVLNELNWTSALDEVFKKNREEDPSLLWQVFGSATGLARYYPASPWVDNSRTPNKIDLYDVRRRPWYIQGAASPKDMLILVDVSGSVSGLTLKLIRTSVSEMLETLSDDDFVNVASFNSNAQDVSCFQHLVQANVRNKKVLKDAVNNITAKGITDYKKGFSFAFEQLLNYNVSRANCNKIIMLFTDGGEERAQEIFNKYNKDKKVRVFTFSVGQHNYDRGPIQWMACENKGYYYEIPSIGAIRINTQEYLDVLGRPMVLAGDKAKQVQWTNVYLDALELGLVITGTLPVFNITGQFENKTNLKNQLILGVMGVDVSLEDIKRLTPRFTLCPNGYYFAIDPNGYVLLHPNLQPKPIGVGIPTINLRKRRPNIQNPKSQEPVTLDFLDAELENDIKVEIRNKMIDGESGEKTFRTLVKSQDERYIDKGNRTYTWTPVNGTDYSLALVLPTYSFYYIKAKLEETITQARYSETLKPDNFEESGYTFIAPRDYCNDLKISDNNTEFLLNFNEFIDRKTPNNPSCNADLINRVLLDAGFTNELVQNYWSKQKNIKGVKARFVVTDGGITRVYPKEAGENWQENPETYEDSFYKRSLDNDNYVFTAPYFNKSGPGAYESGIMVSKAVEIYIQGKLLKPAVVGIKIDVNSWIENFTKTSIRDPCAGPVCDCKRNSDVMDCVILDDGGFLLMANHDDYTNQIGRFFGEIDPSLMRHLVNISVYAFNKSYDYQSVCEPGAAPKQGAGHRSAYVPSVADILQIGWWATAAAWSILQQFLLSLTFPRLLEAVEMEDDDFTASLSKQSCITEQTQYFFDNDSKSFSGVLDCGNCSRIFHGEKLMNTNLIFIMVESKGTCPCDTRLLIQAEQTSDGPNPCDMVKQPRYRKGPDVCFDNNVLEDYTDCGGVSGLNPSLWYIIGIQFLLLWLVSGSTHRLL
# Chain of N-type calcium channel subunits (α1B, α2δ, and β3a) (P54284 whole entry partner): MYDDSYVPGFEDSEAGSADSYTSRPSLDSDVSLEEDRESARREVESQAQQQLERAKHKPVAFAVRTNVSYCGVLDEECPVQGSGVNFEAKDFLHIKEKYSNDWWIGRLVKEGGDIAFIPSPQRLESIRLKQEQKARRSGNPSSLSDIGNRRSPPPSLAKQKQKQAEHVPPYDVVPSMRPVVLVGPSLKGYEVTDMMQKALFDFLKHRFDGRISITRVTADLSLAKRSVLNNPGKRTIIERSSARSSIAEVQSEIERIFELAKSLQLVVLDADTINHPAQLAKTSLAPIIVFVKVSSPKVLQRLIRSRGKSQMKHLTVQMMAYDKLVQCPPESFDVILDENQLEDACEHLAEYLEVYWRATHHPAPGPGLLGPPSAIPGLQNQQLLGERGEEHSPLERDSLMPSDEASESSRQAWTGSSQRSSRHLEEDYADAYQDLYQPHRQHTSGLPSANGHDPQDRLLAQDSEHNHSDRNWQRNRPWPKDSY
Compound,pIC50 [2],pIC50 [3],IC50 [1]
"2-(4,4-difluoropiperidin-1-yl)-N- ((1R,4R)-4-((3- (trifluoromethyl)phenylsulfonyl) methyl)cyclohexyl)acetamide [Compound 166]",5.07,< 5.00,750 nM
"3-chloro-4-fluoro-N-((1R,4R)4-(3- (trifluoromethyl)phenylsulfonyl) cyclohexyl)benzamide [Compound 124]",6.27,6.46,510 nM
3-chloro-5-fluoro-N-(1- methyl-4-(3-(trifluoromethyl) phenylsulfonyl)cyclohexyl) benzamide [Compound 318],5.88,5.61,620 nM
"3-chloro-5-fluoro-N-((1S,4S)-4-((3- (trifluoromethyl)phenylsulfonyl) methyl)cyclohexyl)benzamide [Compound 137]",6.48,6.37,320 nM
"4-chloro-2-(methylsulfonyl)-N- ((1R,4R)-4-(3- (trifluoromethyl)phenylsulfonyl) cyclohexyl)benzamide [Compound 121]",6.03,6.14,3730 nM
"CC(C)(CCNC(=O)c1ccc(Oc2ccc(Cl)cc2)cc1)S(=O)(=O)c1cccc(C(F)(F)F)c1 [Compound 506, 4-(4-chlorophenoxy)-N-(3-methyl-3-(3-(trifluoromethyl)phenylsulfonyl)butyl) benzamide]",6.19,6.54,
"CC(C)(CCNC(=O)c1cn2ccc(C(F)(F)F)cc2n1)S(=O)(=O)c1cccc(C(F)(F)F)c1 [Compound 507, N-(3-methyl-3-(3-(trifluoromethyl)phenylsulfonyl)butyl)-7-(trifluoromethyl)imidazo[1,2-a]pyridine-2-carboxamide]",5.08,6.42,
"CN(CCC(C)(C)S(=O)(=O)c1cccc(C(F)(F)F)c1)C(=O)c1ccc(F)c(C(F)(F)F)c1 [Compound 510, 4-fluoro-N-methyl-N-(3-methyl-3-(3-(trifluoromethyl)phenylsulfonyl)butyl)-3-(trifluoromethyl)benzamide]",5.23,6.77,
"COc1cc(C(=O)N(C)CCC(C)(C)S(=O)(=O)c2cccc(C(F)(F)F)c2)cc(Cl)n1 [Compound 512, 2-chloro-6-methoxy-N-methyl-N-(3-methyl-3-(3-(trifluoromethyl)phenylsulfonyl)butyl) isonicotinamide]",< 5.00,6.48,
"CN(CCC(C)(C)S(=O)(=O)c1cccc(C(F)(F)F)c1)C(=O)c1cc(C(F)(F)F)n[nH]1 [Compound 513, N-methyl-N-(3-methyl-3-(3-(trifluoromethyl)phenylsulfonyl)butyl)-3-(trifluoromethyl)-1H-pyrazole-5-carboxamide]",< 5.00,6.31,
"CN(CCC(C)(C)S(=O)(=O)c1cccc(C(F)(F)F)c1)C(=O)c1cn2ccc(C(F)(F)F)cc2n1 [Compound 514, N-methyl-N-(3-methyl-3-(3-(trifluoromethyl)phenylsulfonyl)butyl)-7-(trifluoromethyl)imidazo[1,2-a]pyridine-2-carboxamide]",< 5.00,6.08,
"CN(CCC(C)(C)S(=O)(=O)c1cccc(C(F)(F)F)c1)CC(=O)NC(C)(C)C [Compound 516, N-tert-butyl-2-(methyl(3-methyl-3-(3-(trifluoromethyl)phenylsulfonyl)butyl)amino)acetamide]",< 5.00,6.21,
"CC(C)(CN[C@H]1CC[C@H](C(F)(F)F)CC1)S(=O)(=O)c1cccc(C(F)(F)F)c1 [Compound 517, (1R,4R)-N-(2-methyl-2-(3-(trifluoromethyl)phenylsulfonyl)propyl)-4-(trifluoromethyl)cyclo hexanamine]",5.21,6.77,

# Continued, in another order:
pIC50 [2],pIC50 [3],Compound,IC50 [1]
5.39,6.22,"CC1(C)CCC(NCC(C)(C)S(=O)(=O)c2cccc(C(F)(F)F)c2)CC1 [Compound 518, 4,4-dimethyl-N-(2-methyl-2-(3-(trifluoromethyl)phenylsulfonyl)propyl) cyclohexanamine]",
5.48,6.26,"CC(C)(CN[C@H]1CC[C@@H](C(F)(F)F)CC1)S(=O)(=O)c1cccc(C(F)(F)F)c1 [Compound 519, (1S,4S)-N-(2-methyl-2-(3-(trifluoromethyl)phenylsulfonyl)propyl)-4-(trifluoromethyl) cyclohexanamine]",
6.33,6.96,"CC(C)(CCNC(=O)c1ccc(Oc2ccc(F)cc2)cc1)S(=O)(=O)c1cccc(C(F)(F)F)c1 [Compound 520, 4-(4-fluorophenoxy)-N-(3-methyl-3-(3-(trifluoromethyl)phenylsulfonyl)butyl) benzamide]",
6.04,6.33,"CC(C)(CNC(=O)c1ccc(Oc2ccc(F)cc2)cc1)S(=O)(=O)c1cccc(C(F)(F)F)c1 [Compound 521, 4-(4-fluorophenoxy)-N-(2-methyl-2-(3-(trifluoromethyl)phenylsulfonyl)propyl) benzamide]",
< 5.00,6.25,"CC(C)(CCNC(=O)c1ncc(C(F)(F)F)cc1S(C)(=O)=O)S(=O)(=O)c1cccc(C(F)(F)F)c1 [Compound 523, N-(3-methyl-3-(3-(trifluoromethyl)phenylsulfonyl)butyl)-3-(methylsulfonyl)-5-(trifluorornethyl)picolinamide]",
5.68,6.42,"CC(C)(C(=O)Nc1ccc(Oc2ccc(F)c(Cl)c2)nc1)S(=O)(=O)c1cccc(C(F)(F)F)c1 [Compound 524, N-(6-(3-chloro-4-tluorophenoxy)pyridin-3-yl)-2-methyl-2-(3-(trifluoromethyl)phenylsulfonyl)propanamide]",
5.54,6.33,"CC(C)(C(=O)Nc1ccc(Oc2ccc(C(F)(F)F)nc2)nc1)S(=O)(=O)c1cccc(C(F)(F)F)c1 [Compound 525, 2-methyl-2-(3-(trifluoromethyl)phenylsulfonyl)-N-(6-(6-(trifluoromethyl)pyridin-3-yloxy)pyridin-3-yl) propanamide]",
5.53,6.62,"CC(C)(CCNC(=O)c1cc(C(F)(F)F)nc(S(C)(=O)=O)c1)S(=O)(=O)c1cccc(C(F)(F)F)c1 [Compound 526, N-(3-methyl-3-(3-(trifluoromethyl)phenylsulfonyl)butyl)-2-(methylsulfonyl)-6-(trifluoromethyl)isonicotinamide]",
< 5.00,7.15,"CC(C)S(=O)(=O)c1cc(C(F)(F)F)cnc1C(=O)NCC(C)(C)S(=O)(=O)c1cccc(C(F)(F)F)c1 [Compound 527, 3-(isopropylsulfonyl)-N-(2-methyl-2-(3-(trifluoromethyl)phenylsulfonyl)propyl)-5-(trifluoromethyl)picolinamide]",
5.62,7.10,"CC(C)S(=O)(=O)c1cc(C(F)(F)F)cnc1C(=O)NCCC(C)(C)S(=O)(=O)c1cccc(C(F)(F)F)c1 [Compound 528, 3-(isopropylsulfonyl)-N-(3-methyl-3-(3-(trifluoromethyl)phenylsulfonyl)butyl)-5-(trifluoromethyl)picolinamide]",
5.01,6.11,"CC(C)(CCNC(=O)c1ccc(Cl)cc1S(C)(=O)=O)S(=O)(=O)c1cccc(C(F)(F)F)c1 [Compound 529, 4-chloro-N-(3-methyl-3-(3-(trifluoromethyl)phenylsulfonyl)butyl)-2-(methylsulfonyl)benzamide]",
< 5.00,5.45,"O=C(N[C@H]1CC[C@@](F)(S(=O)(=O)c2cccc(C(F)(F)F)c2)CC1)[C@H]1CCCCN1 [Compound 531, (R)-N-((1S,4S)-4-fluoro-4-(3-(trifluoromethyl)phenylsulfonyl)cyclohexyl) piperidine-2-carboxamide]",
< 5.00,5.79,"O=C(N[C@H]1CC[C@@](F)(S(=O)(=O)c2cccc(C(F)(F)F)c2)CC1)[C@@H]1CCCCN1 [Compound 532, (S)-N-((1S,4R)-4-fluoro-4-(3-(trifluoromethyl)phenylsulfonyl)cyclohexyl) piperidine-2-carboxamide]",
5.97,6.46,"CC(C)(CCNC(=O)c1ccc(F)c(C(F)(F)F)c1)S(=O)(=O)c1cc(F)cc(C(F)(F)F)c1 [Compound 533, 4-fluoro-N-(3-(3-fluoro-5-(trifluoromethyl)phenylsulfonyl)-3-methylbutyl)-3-(trifluoromethyl)benzamide]",
5.38,6.15,"Cn1nc(C(F)(F)F)cc1C(=O)NCCC(C)(C)S(=O)(=O)c1cc(F)cc(C(F)(F)F)c1 [Compound 535, N-(3-(3-fluoro-5-(trifluoromethyl)phenylsulfonyl)-3-methylbutyl)-l-methyl-3-(trifluoromcthyl)-1H-pyrazole-5-carboxamide]",
< 5.00,6.19,"CC(C)(CCNC(=O)c1cc(C(F)(F)F)nc(S(C)(=O)=O)c1)S(=O)(=O)c1cc(F)cc(C(F)(F)F)c1 [Compound 536, N-(3-(3-fluoro-5-(trifluoromethyl)phenylsulfonyl)-3-methylbutyl)-2-(methylsulfonyl)-6-(trifluoromethyl) isonicotinamide]",
6.13,6.33,"CC(C)(CCNC(=O)c1ccc(Oc2ccc(Cl)cc2)cc1)S(=O)(=O)c1cc(F)cc(C(F)(F)F)c1 [Compound 537, 4-(4-chlorophenoxy)-N-(3-(3-fluoro-5-(trifluoromethyl)phenylsulfonyl)-3-methylbutyl)benzamide]",
